Several values for one entry are separate records, joined by “and”; a condition that tells them apart may be missing. Identical values can stand only once. Counter-ions that a name gives are not always drawn. Like-named read-outs stand apart in the source and are kept apart here. Marks after values point to notes of the source that are not given here.
What was measured:
warfarin-HSA complex [1] = biological target: T1, warfarin-HSA complex (Homo sapiens, UniProt P02768); set-up: method as in Poór et al. 2017; Faisal et al. 2018; conditions: allosteric interaction with Sudlow's site I ligand; ref Poór et al. 2017; Faisal et al. 2018; cited from earlier work
T1 construct: purchased Sigma-Aldrich
T1 sequence (P02768 25-609, one chain of several): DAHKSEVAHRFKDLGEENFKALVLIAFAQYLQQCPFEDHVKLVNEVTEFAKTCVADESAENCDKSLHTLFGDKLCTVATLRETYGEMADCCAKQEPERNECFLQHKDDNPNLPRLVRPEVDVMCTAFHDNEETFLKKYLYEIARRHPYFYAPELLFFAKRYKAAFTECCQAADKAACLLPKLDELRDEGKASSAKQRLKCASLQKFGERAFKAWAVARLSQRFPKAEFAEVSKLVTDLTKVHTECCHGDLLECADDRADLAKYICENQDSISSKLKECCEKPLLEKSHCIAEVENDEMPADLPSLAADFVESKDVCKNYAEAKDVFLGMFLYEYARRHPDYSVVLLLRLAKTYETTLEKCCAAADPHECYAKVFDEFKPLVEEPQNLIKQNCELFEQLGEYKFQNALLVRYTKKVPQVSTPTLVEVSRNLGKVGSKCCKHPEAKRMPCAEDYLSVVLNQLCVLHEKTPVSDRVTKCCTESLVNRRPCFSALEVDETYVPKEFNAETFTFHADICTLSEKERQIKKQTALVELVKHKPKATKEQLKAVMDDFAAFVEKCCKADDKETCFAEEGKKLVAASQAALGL

HSA = biological target: T2, HSA (Homo sapiens, UniProt P02768); experiment: High-performance affinity chromatography on HSA-coated column; format: binding; conditions: Chiralpak HSA column, isopropanol / 0.01 mol/L ammonium acetate pH 7.0 (15:85 v/v%), 0.5 mL/min, room temperature
T2 construct: purchased Daicel Chiralpak HSA, 50 × 3.0 mm, 5 μm
T2 sequence (P02768 25-609): as the sequence (P02768 25-609, one chain of several) above
Method: HPAC was performed with a HSA-coated column (Faisal et al. [2018]). The HPLC system (Jasco, Tokyo, Japan) used for the analysis included an autosampler (AS-4050), a binary pump (PU-4180), and a diode-array detector (MD-4017). A 5-μL volume of samples (ZAN: 200 μmol/L; ZEN, α-ZAL, β-ZAL, and Z14S: 100 μmol/L; Z14G: 50 μmol/L) was driven through a pre-column filter (Waters, Milford, MA, USA) linked to an immobilized HSA-coated HPAC column (Chiralpak® HSA, 50 × 3.0 mm, 5 μm; Daicel, Tokyo, Japan). The isocratic elution was performed with 0.5-mL/min flow rate at room temperature. The mobile phase contained isopropanol (HPLC grade; VWR, Debrecen, Hungary) and 0.01 mol/L pH 7.0 ammonium acetate buffer (15:85 v/v%). Mycotoxins were detected at 235 nm, and chromatograms were evaluated with ChromNAV software.

[2] = biological target: T3, human serum albumin (HSA) (Homo sapiens, UniProt P02768); set-up: method as in Faisal et al. (2018); conditions: ref Faisal et al. (2018); cited from earlier work
T3 construct: purchased Sigma-Aldrich
T3 sequence (P02768 25-609): as the sequence (P02768 25-609, one chain of several) above

[3] = biological target: T4, bovine serum albumin (BSA) (Bos taurus, UniProt P02769); set-up: method as in Faisal et al. (2018); conditions: ref Faisal et al. (2018); cited from earlier work
T4 construct: purchased Sigma-Aldrich
T4 sequence (P02769 25-607): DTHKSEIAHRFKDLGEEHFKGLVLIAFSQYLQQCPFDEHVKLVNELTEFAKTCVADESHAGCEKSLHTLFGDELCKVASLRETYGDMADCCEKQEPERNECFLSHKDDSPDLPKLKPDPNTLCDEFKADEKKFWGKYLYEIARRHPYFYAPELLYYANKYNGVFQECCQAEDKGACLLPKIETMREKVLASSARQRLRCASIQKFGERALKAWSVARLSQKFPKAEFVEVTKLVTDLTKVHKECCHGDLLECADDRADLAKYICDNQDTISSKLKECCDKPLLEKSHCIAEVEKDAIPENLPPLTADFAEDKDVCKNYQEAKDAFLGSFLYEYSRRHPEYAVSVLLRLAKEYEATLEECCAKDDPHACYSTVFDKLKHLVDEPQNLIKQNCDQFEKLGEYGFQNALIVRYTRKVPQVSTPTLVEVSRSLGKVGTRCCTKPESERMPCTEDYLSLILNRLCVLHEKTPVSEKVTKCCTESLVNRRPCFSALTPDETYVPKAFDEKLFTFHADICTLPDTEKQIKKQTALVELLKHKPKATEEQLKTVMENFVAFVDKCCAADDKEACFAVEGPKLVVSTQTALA

[4] = biological target: T5, porcine serum albumin (PSA) (Sus scrofa, UniProt P08835); set-up: method as in Faisal et al. (2018); conditions: ref Faisal et al. (2018); cited from earlier work
T5 construct: purchased Sigma-Aldrich
T5 sequence (P08835 25-607): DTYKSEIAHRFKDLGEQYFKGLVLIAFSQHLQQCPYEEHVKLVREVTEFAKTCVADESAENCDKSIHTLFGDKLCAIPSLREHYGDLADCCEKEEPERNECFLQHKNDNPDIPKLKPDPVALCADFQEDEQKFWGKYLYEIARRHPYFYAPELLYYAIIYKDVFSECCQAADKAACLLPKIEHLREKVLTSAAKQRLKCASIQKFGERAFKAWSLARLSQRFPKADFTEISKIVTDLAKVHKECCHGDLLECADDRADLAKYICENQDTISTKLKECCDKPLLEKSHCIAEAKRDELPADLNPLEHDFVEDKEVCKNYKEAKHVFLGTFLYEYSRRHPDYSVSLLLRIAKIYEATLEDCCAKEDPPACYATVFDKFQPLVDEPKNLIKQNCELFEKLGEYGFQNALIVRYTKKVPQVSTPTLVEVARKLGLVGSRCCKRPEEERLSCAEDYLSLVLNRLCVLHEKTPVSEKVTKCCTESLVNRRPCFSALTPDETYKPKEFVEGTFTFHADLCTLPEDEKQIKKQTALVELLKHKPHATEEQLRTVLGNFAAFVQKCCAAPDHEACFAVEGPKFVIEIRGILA

rat serum albumin (RSA) [5] = biological target: T6, rat serum albumin (RSA) (Rattus norvegicus, UniProt P02770); set-up: method as in Faisal et al. (2018); conditions: ref Faisal et al. (2018); cited from earlier work
T6 construct: purchased Sigma-Aldrich
T6 sequence (P02770 25-608): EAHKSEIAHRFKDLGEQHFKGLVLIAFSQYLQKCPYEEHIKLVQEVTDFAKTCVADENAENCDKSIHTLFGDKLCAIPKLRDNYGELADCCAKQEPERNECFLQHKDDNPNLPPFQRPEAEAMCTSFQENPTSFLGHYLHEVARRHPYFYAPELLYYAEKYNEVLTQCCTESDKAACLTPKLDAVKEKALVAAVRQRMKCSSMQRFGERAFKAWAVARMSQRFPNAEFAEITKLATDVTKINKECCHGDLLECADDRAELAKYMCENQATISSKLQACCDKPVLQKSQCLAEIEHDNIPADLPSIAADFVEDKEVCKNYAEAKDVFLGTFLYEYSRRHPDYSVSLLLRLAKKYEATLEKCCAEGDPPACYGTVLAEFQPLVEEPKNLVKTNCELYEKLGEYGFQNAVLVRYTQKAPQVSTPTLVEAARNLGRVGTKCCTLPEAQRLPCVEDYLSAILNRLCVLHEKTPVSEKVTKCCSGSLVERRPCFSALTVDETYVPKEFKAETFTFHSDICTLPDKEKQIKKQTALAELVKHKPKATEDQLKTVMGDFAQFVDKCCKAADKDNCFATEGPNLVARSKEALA

[6] = set-up: method as in EFSA 2014; conditions: ZEN equivalents for ZEN and its modified forms jointly; ref EFSA 2014; cited from earlier work
[7] = set-up: method as in Rai et al. 2019; conditions: ref Rai et al. 2019; cited from earlier work
[8] = biological target: T3, human serum albumin (HSA); experiment: Fluorescence quenching of human serum albumin by mycotoxins; format: binding; conditions: for logKSV ± SEM (Stern-Volmer quenching constant): HSA 2 μmol/L, PBS pH 7.4, room temperature, λex = 295 nm, λem = 340 nm; for Kd: logK ± SEM (binding constant of mycotoxin-albumin complex), HSA, quenching data, Hyperquad2006 fitting, 1:1 stoichiometry, PBS pH 7.4
Method: (§1) Fluorescence spectroscopic measurements were carried out employing a Hitachi F-4500 fluorescence spectrophotometer (Hitachi, Tokyo, Japan) to investigate the effect of increasing mycotoxin concentrations on the fluorescence signal of albumins as well as on the emission spectrum of warfarin-HSA complex. Our studies were executed in phosphate-buffered saline (PBS, pH 7.4; 8.00 g/L NaCl, 0.20 g/L KCl, 1.81 g/L Na2HPO4 × 2H2O, 0.24 g/L KH2PO4) at room temperature, in the presence of air.
(§2) For spectral correction of fluorescence emission intensities, absorption spectra of mycotoxins were also recorded applying a Jasco-V730 spectrophotometer (Jasco, Tokyo, Japan). The inner-filter effect of mycotoxins was corrected as described previously (Hu and Liu [2015]; Faisal et al. [2018]):1 Icor=Iobs×e^Aex+Aem/2 where Icor and Iobs indicate the corrected and observed fluorescence emission intensities, respectively. Aex and Aem denote the absorbance of mycotoxins at the excitation and emission wavelengths used, respectively.
(§3) To investigate the stability of mycotoxin-albumin complexes, mycotoxin-induced quenching effects on the intrinsic fluorescence of albumins were tested. The emission signal of albumins (2 μmol/L; λex = 295 nm; […]) were measured in the presence of increasing concentrations of mycotoxins (0.0, 1.0, 2.0, 3.0, 4.0, 5.0, 6.0, 7.0, 8.0, 9.0, and 10.0 μmol/L). Stern-Volmer quenching constants (KSV; unit: L/mol) were determined employing the Stern-Volmer equation (Ma et al. [2018]; Faisal et al. [2018]):2 I0/I=1+KSV×Q where Q is the concentration of the mycotoxin (unit: mol/L). I0 and I are the fluorescence emission signal of albumin in the absence and presence of mycotoxins, respectively. Z14S and Z14G exert fluorescence; their excitation and emission spectra, under different environmental conditions, have been reported previously (Faisal et al. [2019], [2020]).
(§4) Binding constants (K; unit: L/mol) of mycotoxin-albumin complexes were determined by nonlinear fitting employing Hyperquad2006 software, as described in details in our previous studies (Sueck et al. [2018]; Faisal et al. [2018]).

[9] = biological target: T4, bovine serum albumin (BSA); experiment: Fluorescence quenching of bovine serum albumin by mycotoxins; format: binding; conditions: for logKSV ± SEM (Stern-Volmer quenching constant): BSA 2 μmol/L, PBS pH 7.4, room temperature, λex = 295 nm, λem = 340 nm
Method: as §1, §2, §3, §4

[10] = biological target: T5, porcine serum albumin (PSA); experiment: Fluorescence quenching of porcine serum albumin by mycotoxins; format: binding; conditions: for logKSV ± SEM (Stern-Volmer quenching constant): PSA 2 μmol/L, PBS pH 7.4, room temperature, λex = 295 nm, λem = 340 nm
Method: as §1, §2, §3, §4

rat serum albumin (RSA) [11] = biological target: T6, rat serum albumin (RSA); experiment: Fluorescence quenching of rat serum albumin by mycotoxins; format: binding; conditions: for logKSV ± SEM (Stern-Volmer quenching constant): RSA 2 μmol/L, PBS pH 7.4, room temperature, λex = 295 nm, λem = 340 nm
Method: as §1, §2, §3, §4

warfarin-HSA complex [12] = biological target: T1, warfarin-HSA complex; experiment: Effect of mycotoxins on warfarin-HSA interaction (warfarin fluorescence); format: binding; conditions: warfarin 1 μmol/L, HSA 3.5 μmol/L, mycotoxin 0-15 μmol/L, PBS pH 7.4, λex = 317 nm
Method: as §1, §2
To test the effects of ZEN metabolites on warfarin-HSA interaction, our previously reported method was applied (Faisal et al. [2018]; Fliszár-Nyúl et al. [2019]). In this experiment, the fluorescence emission signal of warfarin (1 μmol/L; λex = 317 nm, λem = 379 nm) was examined in the presence of HSA (3.5 μmol/L) without and with mycotoxins (0, 1, 2, 3, 4, 5, 6, 8, 10, and 15 μmol/L) in PBS (pH 7.4). Under these conditions, approximately 70% of warfarin is albumin-bound.

estrogen receptors = conditions: cited from earlier work; for xenoestrogenic effects compared with ZEN: ref EFSA 2017, Fleck et al. 2017, Frizzell et al. 2011, Filannino et al. 2011
[13] = pigs, cited from earlier work; for intestinal hydrolysis to ZEN after oral administration: ref Binder et al. 2017
[14] = tested on: human, bovine, porcine, and rat serum albumins; experiment: Fluorescence quenching, statements on all albumins tested together; format: binding; conditions: albumins 2 μmol/L, mycotoxin 0-10 μmol/L, PBS, λex = 295 nm
Method: as §1, §2
To investigate the stability of mycotoxin-albumin complexes, mycotoxin-induced quenching effects on the intrinsic fluorescence of albumins were tested. The emission signal of albumins (2 μmol/L; λex = 295 nm; […]) were measured in the presence of increasing concentrations of mycotoxins (0.0, 1.0, 2.0, 3.0, 4.0, 5.0, 6.0, 7.0, 8.0, 9.0, and 10.0 μmol/L). […]

[15] = set-up: method as in Sun et al. 2019; conditions: rats, ref Sun et al. 2019; cited from earlier work
CaCo-2 cells = tested on: CaCo-2 cells; set-up: method as in Cirlini et al. 2016; conditions: ref Cirlini et al. 2016; cited from earlier work
[16] = from binding constants of Table 2

Row | Structure (SMILES) | effect on binding affinity of warfarin towards HSA (warfarin-HSA complex [1]) | retention time (tR) from HSA-HPAC affinity column (HSA) | logKSV ± SEM (Stern-Volmer quenching constant) [8] | Kd [8] | logKSV ± SEM (Stern-Volmer quenching constant) [9] | Kd [10] | logKSV ± SEM (Stern-Volmer quenching constant) [10] | Kd (rat serum albumin (RSA) [11]) | logKSV ± SEM (Stern-Volmer quenching constant) (rat serum albumin (RSA) [11]) | effect on fluorescence emission signal of warfarin at 379 nm (warfarin-HSA interaction) (warfarin-HSA complex [12]) | Kd [9] | also measured
1 | C[C@H]1CCC[C@@H](O)CCC/C=C/c2cc(O)cc(O)c2C(=O)O1 [β-ZEL, β-zearalenol] | decrease |  |  |  |  |  |  |  |  |  |  | 
2 | C[C@H]1CCCC(=O)CCC/C=C/c2cc(O)cc(O)c2C(=O)O1 [ZEN, Zearalenone] | increase | 12.3 min and 12.267 min |  |  |  |  |  |  |  |  |  | logK ± SEM (binding constant of mycotoxin-albumin complex) [2]: 5.1 L/mol and 5.09 ± 0.01^a L/mol; logKSV ± SEM (Stern-Volmer quenching constant) [2]: 5.09 ± 0.01^a L/mol; logK ± SEM (binding constant of mycotoxin-albumin complex) [3]: 4.78 ± 0.01^a L/mol; logKSV ± SEM (Stern-Volmer quenching constant) [3]: 4.81 ± 0.01^a L/mol; logK ± SEM (binding constant of mycotoxin-albumin complex) [4]: 4.57 ± 0.01^a L/mol; logKSV ± SEM (Stern-Volmer quenching constant) [4]: 4.56 ± 0.02^a L/mol; logK ± SEM (binding constant of mycotoxin-albumin complex) (rat serum albumin (RSA) [5]): 5.42 ± 0.00^a L/mol; logKSV ± SEM (Stern-Volmer quenching constant) (rat serum albumin (RSA) [5]): 5.50 ± 0.01^a L/mol; human tolerable daily intake (TDI) [6]: 0.25 μg/kg body weight per day; IARC carcinogen classification [7]: group 3 carcinogen
3 | C[C@H]1CCCC(=O)CCCCCc2cc(O)cc(O)c2C(=O)O1 [ZAN, zearalanone] |  | 8.0 min and 8.017 min | 4.52 ± 0.04 L/mol | 26.3 µM | 4.41 ± 0.04 L/mol | 107 µM | 3.97 ± 0.06 L/mol | 7.59 µM | 5.00 ± 0.03 L/mol | considerably increased the emission signal of warfarin |  | Kd ([9]; BSA, quenching data, Hyperquad2006 fitting, 1:1 stoichiometry, PBS pH 7.4, read-out: logK ± SEM (binding constant of mycotoxin-albumin complex) (converted)): 30.9 µM; difference in binding affinity, RSA vs. PSA complex (rat serum albumin (RSA) [11]; [16]): 14 fold
4 | C[C@H]1CCC[C@@H](O)CCCCCc2cc(O)cc(O)c2C(=O)O1 [β-ZAL, β-zearalanol] |  | 3.1 min and 3.053 min | 4.34 ± 0.04 L/mol | 42.7 µM | 3.88 ± 0.06 L/mol | 70.8 µM | 4.13 ± 0.09 L/mol | 2.45 µM | 5.43 ± 0.01 L/mol | did not affect the fluorescence at 379 nm | 75.9 µM | difference in binding affinity, RSA vs. BSA complex (rat serum albumin (RSA) [11]; [16]): 30 fold
5 | C[C@H]1CCCC(=O)CCC/C=C/c2cc(OS(=O)(=O)O)cc(O)c2C(=O)O1 [Z14S, Zearalenone-14-sulfate ammonium salt] |  | 23.3 min and 23.293 min | 4.64 ± 0.03 L/mol | 20 µM and 19.5 µM | 5.32 ± 0.02 L/mol | 7.59 µM | 5.04 ± 0.02 L/mol | 1.17 µM | 5.70 ± 0.02 L/mol | did not affect the fluorescence at 379 nm | 3.72 µM | difference in binding affinity, RSA and HSA complex (rat serum albumin (RSA) [11]; [16]): 16 fold; lower estrogenicity vs. ZEN (estrogen receptors; in vitro, ref Drzymala et al. 2015): 100 fold; intestinal hydrolysis to ZEN after oral administration [13]: complete intestinal hydrolysis to ZEN
6 | C[C@H]1CCC[C@H](O)CCCCCc2cc(O)cc(O)c2C(=O)O1 [α-ZAL, α-zearalanol] |  | 5.3 min and 5.313 min | 4.50 ± 0.02 L/mol | 28.2 µM | 4.20 ± 0.05 L/mol | 41.7 µM | 4.30 ± 0.05 L/mol | 4.9 µM | 5.21 ± 0.00 L/mol | considerably increased the emission signal of warfarin | 45.7 µM | difference in binding affinity, RSA vs. BSA complex (rat serum albumin (RSA) [11]; [16]): 9 fold; xenoestrogenic effects compared with ZEN (estrogen receptors): considerably higher xenoestrogenic effects than ZEN
7 | C[C@H]1CCCC(=O)CCC/C=C/c2cc(O[C@@H]3O[C@H](CO)[C@@H](O)[C@H](O)[C@H]3O)cc(O)c2C(=O)O1 [Z14G, Zearalenone-14-O-β-D-glucoside] |  | 1.7 min and 1.650 min |  |  |  |  |  |  |  | did not affect the fluorescence at 379 nm |  | effect on the emission signals of albumins (quenching) [14]: did not affect the emission signals of albumins; plasma concentrations after oral administration [15]: low plasma concentrations; absorption in CaCo-2 cell model (CaCo-2 cells): considerably lower compared with ZEN; fraction of the orally administered compound absorbed ([13]; oral, ref Catteuw et al. 2019): approximately 61%; intestinal hydrolysis to ZEN after oral administration [13]: complete intestinal hydrolysis to ZEN
8 | C[C@H]1CCC[C@H](O)CCC/C=C/c2cc(O)cc(O)c2C(=O)O1 [α-ZEL, α-zearalenol, reference compound] | increase |  |  |  |  |  |  |  |  |  |  | xenoestrogenic effects compared with ZEN (estrogen receptors): considerably higher xenoestrogenic effects than ZEN

From PMC7536148, “Interactions of zearalanone, α-zearalanol, β-zearalanol, zearalenone-14-sulfate, and zearalenone-14-glucoside with serum albumin” (Mycotoxin Research, 2020)
